pIC50: −log10 of the molar value. Structures can show the parent of a compound that is named as a salt.
Legend:
[1] = target: T1, recombinantly expressed IKK-1 (Homo sapiens, UniProt O15111); test: IKK-1 enzyme assay (33P-ATP / IκB-α phosphorylation); type: biochemical; conditions: 33P-labeled ATP and IκB-α as substrates
T1 construct: made in house
T1 sequence (O15111 1-745): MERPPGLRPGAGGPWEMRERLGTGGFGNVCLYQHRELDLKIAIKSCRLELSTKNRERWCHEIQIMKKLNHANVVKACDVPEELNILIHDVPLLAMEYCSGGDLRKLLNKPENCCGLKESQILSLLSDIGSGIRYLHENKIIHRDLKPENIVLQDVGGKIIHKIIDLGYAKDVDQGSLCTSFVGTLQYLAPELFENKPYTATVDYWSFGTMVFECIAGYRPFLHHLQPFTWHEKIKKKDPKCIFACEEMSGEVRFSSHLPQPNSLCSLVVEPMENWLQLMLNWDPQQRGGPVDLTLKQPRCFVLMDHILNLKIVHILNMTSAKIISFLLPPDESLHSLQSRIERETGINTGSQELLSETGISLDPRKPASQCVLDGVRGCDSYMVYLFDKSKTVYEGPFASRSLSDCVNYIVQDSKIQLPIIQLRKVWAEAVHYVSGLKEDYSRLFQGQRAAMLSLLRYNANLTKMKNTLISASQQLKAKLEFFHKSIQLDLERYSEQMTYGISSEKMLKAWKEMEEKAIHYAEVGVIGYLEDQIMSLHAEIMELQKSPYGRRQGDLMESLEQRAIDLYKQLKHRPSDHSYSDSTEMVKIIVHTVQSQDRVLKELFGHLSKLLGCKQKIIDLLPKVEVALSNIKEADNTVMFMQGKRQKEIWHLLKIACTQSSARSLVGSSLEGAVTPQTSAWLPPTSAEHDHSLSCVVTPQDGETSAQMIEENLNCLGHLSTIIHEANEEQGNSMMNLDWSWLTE
Procedure: In this assay, test compound was added to a solution of 0.5 mM IκB-α in 40 mM Tris-HCl, pH 8, containing 4 mM MgCl2, 1 mM dithiothreitol, and 2 mM ^33P-labeled ATP. IKK enzyme (either the multisubunit complex from HeLa cells, recombinantly expressed IKK-1, or recombinantly expressed IKK-2) was then added to initiate the reaction. The multisubunit complex was isolated according to the procedure of Lee et al. [(1997) Cell 88:213-222] or Mercurio et al. [(1997) 278:860-866]. The recombinant IKK-1 and IKK-2 were expressed using the procedure of Burke et al. [(1999) J. Biol. Chem. 274:36146-36152]. After incubating for 10 minutes at 30° C., the reaction was quenched by the addition of EDTA to a final concentration of 30 mM. In order to separate the phosphorylated IκB-α (Santa Cruz Biotechnology; Santa Cruz, Calif.) product from unreacted ATP, sodium dodecylsulfate polyacrylamide gel electrophoresis (SDS-PAGE) was performed. Phosphoimager analysis of the amount of ^33P incorporation into IκB-α was executed using a Molecular Dynamics 445 Phosphoimager, and the inhibition of IKK activity by the test compound was calculated from control samples containing no inhibitor.

SMILES | melting point | pIC50 [1]
Cc1cnc2c(NCCO)nc3cc4ccccc4cc3n12 [Example 18, 1-methyl-4-(2-hydroxyethylamino)benzo[g]imidazo[1,2-a]quinoxaline] | 186 to 188 °C | 
CNc1nc2cc3ccccc3cc2n2c(C)cnc12 [Example 12, 1-methyl-4-methylaminobenzo[g]imidazo[1,2-a]quinoxaline] | 201 to 202 °C | 6.64
CNc1nc2cc3ccccc3cc2c2c(C)cnn12 [Example 14, 1-methyl-4-methylaminobenzo[g]pyrazolo[1,5-c]quinazoline] |  | 6.17
Cc1cnc2c(NCCN3CCCCC3)nc3cc4ccccc4cc3n12 [Example 19, 1-methyl-4-(2-piperidin-1-yl-ethylamino)benzo[g]imidazo[1,2-a]quinoxaline] | 170 to 172 °C | 5.77
Cn1cnc2c(NCCN)nc3cc4ccccc4cc3c21 [Example 17] |  | 6.00
CNCCNc1nc2cc3ccccc3cc2n2c(C)cnc12 (as salt: hydrochloride) [Example 13, 1-methyl-4-(2-N-methylaminoethylamino)benzo[g]imidazo[1,2-a]quinoxaline Hydrochloride] | 265 to 275 °C (dec.) | 
CNCCNc1nc2cc3ccccc3cc2n2c(C)cnc12 [Example 13, 1-methyl-4-(2-N-methylaminoethylamino)benzo[g]imidazo[1,2-a]quinoxaline Hydrochloride] |  | 6.46
CNc1nc2cc3ccccc3cc2c2c1ncn2C [Example 16, 1-methyl-4-methylaminobenzo(g)imidazo(4,5-c)quinoline] |  | 6.10

— patent US6869956B2, “Methods of treating inflammatory and immune diseases using inhibitors of IκB kinase (IKK)” (Bristol-Myers Squibb Company, priority 2000, dated 2005)
